Measured values as given in publication PMC2997884 (Molecular pharmaceutics, 2010).
Where two headings read alike, the source gives them in different places. Where a SMILES comes first, the peptide text is derived from it. [ ]: non-standard residue; d: D form. The star is where a group is joined. ξ: configuration not given here. pNA = O=[N+]([O-])c1ccc(N*)cc1; ξP = O=C(O)C1CCCN1

How the values were obtained:
[1] = Hydrolysis in pH 7.4 HEPES buffer; type: physicochemical; details: for t1/2 (estimated half-life): pH 7.4 HEPES buffer, 37 °C, mean ± SEM, esters n=3, Val-3-APG n=1 (up to 800 h)
[2] = target: T1, hVACVase (Homo sapiens, UniProt Q86WA6); experiment: hVACVase-mediated hydrolysis; details: 50 mM HEPES pH 7.4, 37°C, 6×His-tagged hVACVase for Val-3-APG; for kcat: calculated from Vmax/[enzyme]0; for Km / Vmax: mean ± SEM, Phe-OMe n=2, others n=3
T1 sequence (Q86WA6 38-291): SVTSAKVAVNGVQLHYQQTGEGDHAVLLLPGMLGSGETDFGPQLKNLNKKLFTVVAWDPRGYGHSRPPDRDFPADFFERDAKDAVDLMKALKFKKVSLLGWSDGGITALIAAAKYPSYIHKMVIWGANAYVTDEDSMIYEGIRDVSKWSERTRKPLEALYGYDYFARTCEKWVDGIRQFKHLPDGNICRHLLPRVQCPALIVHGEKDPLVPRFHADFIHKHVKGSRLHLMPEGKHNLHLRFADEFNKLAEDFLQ

[3] = target: T1, hVACVase; details: cited from earlier work; for Vmax / Km: hVACVase; for specific activity: hVACVase substrate
[4] = tested on: chymotrypsin; details: N-acetyltryptophanyl-X substrates of chymotrypsin; ref Bender and Kezdy[14]; cited from earlier work
[5] = target: T1, hVACVase; details: hVACVase-mediated hydrolysis; previously published; ref Sun et al.[12]; cited from earlier work

In the case of `Br.CC(C)[C@H](N)C(=O)OCc1ccc([N+](=O)[O-])cc1` [valine p-nitrobenzyl ester, L-Valine p-nitrobenzyl ester hydrobromide], the “t1/2 (estimated half-life)” value [1] is reported as 6.872 ± 0.198 h, the kcat [2] is reported as 130 ± 2 s⁻¹ and the Km [2] is reported as 14 ± 1 µM. For the same molecule, the Vmax [2] was 272 ± 3 nmol/min/µg.
In the case of `O=C(Nc1ccc([N+](=O)[O-])cc1)[C@@H]1CCCN1` [Pro-p-NA], the “hydrolytic activity of hVACVase toward amides” value (shortened to “hydrolytic activity”) [3] is given as “does not exhibit significant hydrolytic activity”.
For `NCCCC[C@H](N)C(=O)Nc1ccc([N+](=O)[O-])cc1` [Lys-p-NA], the “hydrolytic activity” value [3] is listed as “does not exhibit significant hydrolytic activity”.
In the case of `CC(C)C[C@H](N)C(=O)Nc1ccc([N+](=O)[O-])cc1` [Leu-p-NA], the “hydrolytic activity” value [3] is given as “does not exhibit significant hydrolytic activity”.
In the case of `CC(C)(C)OC(=O)[C@@H](N)Cc1ccccc1` [phenylalanine t-butyl ester], the “hVACVase substrate or not” value [3] is listed as “not a substrate”.
For `NCC(=O)N1CCCC1C(=O)Nc1ccc([N+](=O)[O-])cc1` (stereo not drawn) [Gly-Pro-p-NA] (H-Gly-[ξP]-pNA), the “hydrolytic activity” value [3] is given as “does not exhibit significant hydrolytic activity”.
In the case of `CC(=O)N[C@@H](Cc1c[nH]c2ccccc12)C(=O)Oc1ccc([N+](=O)[O-])cc1` [-OPNP], the Km [4] is listed as 2 µM and the kcat [4] is listed as 0.508 s⁻¹.
In the case of `CC(C)[C@H](N)C(=O)Nc1ccc([N+](=O)[O-])cc1` [Val-p-NA], the “hydrolytic activity” value [3] is listed as “does not exhibit significant hydrolytic activity”.
For `CCOC(=O)[C@H](Cc1c[nH]c2ccccc12)NC(C)=O` [-OEt], the Km [4] is given as 97 µM and the kcat [4] is given as 0.448 s⁻¹.
In the case of `CC(C)C(N)C(=O)OCC1OC(n2cc(F)c(=O)[nH]c2=O)CC1O` (stereo not shown) [valine 5’-floxuridine], the Vmax [3] is listed as 148 nmol/min/µg.
In the case of `CC(=O)N[C@@H](Cc1c[nH]c2ccccc12)C(N)=O` [-NH2], the Km [4] is listed as 5000 µM and the kcat [4] is listed as 0.0006 s⁻¹.
For `Cl.N[C@@H](Cc1ccccc1)C(=O)OCc1ccccc1` [Phe-OBn, L-phenylalanine benzyl ester hydrochloride], the “t1/2 (estimated half-life)” value [1] is listed as 6.083 ± 0.157 h, the specific activity [3] is listed as 358.3 units/mg and the kcat [2] is listed as 395 ± 26 s⁻¹. The Km [2] was 99 ± 26 µM and the Vmax [2] was 822 ± 54 nmol/min/µg.
In the case of `CCOC(=O)[C@@H](N)Cc1ccccc1.Cl` [Phe-OEt, L-phenylalanine ethyl ester hydrochloride], the “t1/2 (estimated half-life)” value [1] is listed as 16.773 ± 0.433 h, the specific activity [3] is listed as 75.3 units/mg and the kcat [2] is listed as 93 ± 4 s⁻¹. For the same molecule, the Km [2] was 6700 ± 560 µM and the Vmax [2] was 193 ± 8 nmol/min/µg.
For `N[C@@H](Cc1ccccc1)C(=O)Nc1ccc([N+](=O)[O-])cc1` [Phe-p-NA], the “hydrolytic activity” value [3] is given as “does not exhibit significant hydrolytic activity”.
In the case of `CC(C)[C@H](N)C(=O)OCCOCn1cnc2c(=O)[nH]c(N)nc21` [valacyclovir], the half-life ([1]; HEPES buffer, pH 7.4) is listed as 12.37 ± 0.0917 h, the Km [5] is listed as 68 ± 4 µM and the Vmax [5] is listed as 120 ± 2 nmol/min/µg. For the same molecule, the kcat [5] was 58 ± 1 s⁻¹ and the Km [3] was 190 µM.
In the case of `N=C(N)Nc1cccc(COC(=O)[C@@H](N)Cc2ccccc2)c1` [Phe-3-HPG], the “t1/2 (estimated half-life)” value [1] is given as 3.833 ± 0.108 h, the Km [5] is given as 207 ± 16 µM and the Vmax [5] is given as 718 ± 16 nmol/min/µg. The kcat [5] was 345 ± 8 s⁻¹.
For `CC(C)C(N)C(=O)OC1CC(n2cc(F)c(=O)[nH]c2=O)OC1CO` (stereo not shown) [valine 3’-floxuridine ester], the Vmax [3] is given as 33 nmol/min/µg.
For `CC(C)[C@H](N)C(=O)OCC(CO)OCn1cnc2c(=O)nc(N)[nH]c21` (stereo partly shown) [valganciclovir], the Km [3] is given as 1900 µM.
With `CC(C)[C@H](N)C(=O)OCc1ccccc1.Cl` [Val-OBn, L-valine benzyl ester hydrochloride] the “t1/2 (estimated half-life)” value [1] was 14.3 ± 0.127 h, the kcat [2] was 60 ± 3 s⁻¹ and the Km [2] was 60 ± 15 µM. It also gave a Vmax [2] of 125 ± 7 nmol/min/µg.
For `COC(=O)[C@H](Cc1c[nH]c2ccccc12)NC(C)=O` [-OMe], the Km [4] is listed as 95 µM and the kcat [4] is listed as 0.462 s⁻¹.
In the case of `CC(C)C(N)C(=O)OCc1cccc(NC(=N)N)c1` (stereo not shown) [Val-3-HPG], the “t1/2 (estimated half-life)” value [1] is listed as 8.115 ± 0.11 h, the Km [5] is listed as 46 ± 5 µM and the Vmax [5] is listed as 321 ± 9 nmol/min/µg. The kcat [5] was 154 ± 4 s⁻¹.
